The text below walks through data of PubChem BioAssay (NCI).

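Assay format: 96-well plates, 48-hour exposure. TGI marks complete inhibition of growth.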

Holding throughout (assay): growth of human tumour cells (NCI), 48 h
The subject of assay [1] is 786-0 renal.
Assay [2] relates to A549 NSCLC.
For assay [3], the system named is COLO 205 colon.
Assay [4] concerns DU-145 prostate.
In assay [5] the test system is HT29 colon.
For assay [6], the system named is LOX IMVI melanoma.
The subject of assay [7] is MDA-MB-231 breast.
Assay [8] relates to MDA-MB-435.
Assay [9] concerns NCI-H23 lung.
Assay [10] concerns OVCAR-5 ovarian.
Assay [11] concerns PC-3 prostate.
Assay [12] has as its system SK-OV-3 ovarian.
The test system of assay [13] is SN12C renal.
Assay [14] relates to SNB-19 CNS.
The subject of assay [15] is SR leukemia.
Assay [16] relates to U251 CNS.
Assay [17] deals with UACC-257 melanoma.
The test system of assay [18] is ACHN renal.
Assay [19] concerns HCC-2998 colon.

For the compound `O=C(Oc1ccccc1)N1c2ccccc2[C@@]23O[C@]24CCC[C@H]3C#C/C=C\C#C[C@H]14`, the TGI in assay [1] is 22.2 µM; in [2] it was 25 µM; in [3], 28 µM; in assay [4] it was 30.5 µM; in [5], 23.2 µM; in [6], 25.6 µM. Further, the TGI was determined as 24.8 µM in [7]; 36.7 µM in [8]; 28.7 µM in assay [9]; 24.1 µM in [10]; 23.8 µM in assay [11]; 17.1 µM in [12]. Moreover, the TGI amounted to 26.6 µM in [13]; 29.1 µM in assay [14]; 41.1 µM in [15]; 30.3 µM in assay [16]; 28.7 µM in assay [17].

For the compound `COc1ccc(CC2c3cc(OC)c(OC)cc3CC[N+]2(C)C)cc1OC` (stereo not given), the TGI in assay [1], in [2], in assay [18], in assay [3], in assay [4] and in [19] was over 100 µM each time. Further, the TGI in assay [5], in assay [6], in assay [7], in [8], in [9] and in [10] was over 100 µM each time. Also, the TGI in assay [11], in assay [12], in assay [13], in assay [14], in assay [16] and in [17] was over 100 µM throughout.

For the compound `COC(=O)c1c(C#N)[nH]c(-c2ccsc2)c1C(=O)OC`, the TGI in assay [1], in [2], in assay [18], in [3], in assay [4] and in assay [5] was over 100 µM throughout. Also, the TGI in assay [6], in assay [7], in assay [8], in assay [9], in [10] and in assay [11] was over 100 µM each time. The TGI in [12], in assay [13], in assay [15], in [16] and in [17] was over 100 µM each time.

On to `CCC(=O)O[C@H]1CC[C@H]2[C@@H]3CCC4=C/C(=N/OC(=O)c5cccc6c(=O)c7ccccc7[nH]c56)CC[C@]4(C)[C@H]3CC[C@]12C`, for which the TGI in assay [1] was 36.5 µM; in [2] it was over 100 µM; in [18] it was over 100 µM; in assay [3], over 100 µM; in assay [19], 41.2 µM; in assay [5], over 100 µM. In addition, the TGI in [6] was 51.4 µM; in assay [7] it was over 100 µM; in [8], 99.6 µM; in assay [9], over 100 µM; in assay [10], over 100 µM; in assay [11], over 100 µM. Besides, the TGI in assay [12], in [13], in assay [14], in assay [15], in assay [16] and in assay [17] was over 100 µM each time.

On to `Cc1cc(C)c2c(c1)C/C(=C\c1ccccc1C(=O)O)C2=O`, for which the TGI in assay [1], in assay [2], in assay [18], in [4], in assay [19] and in assay [5] was over 100 µM throughout. Further, the TGI in [6], in assay [7], in assay [9], in assay [10], in assay [11] and in [13] was over 100 µM each time. Besides, the TGI in [14], in assay [15], in [16] and in assay [17] was over 100 µM throughout.

`O=C(N[C@@H](c1ccccc1)[C@@H](O)C(=O)OCc1ccc([N+](=O)[O-])cc1)c1ccccc1`: the TGI in [1], in assay [2], in assay [18], in [3], in assay [4] and in assay [19] was over 100 µM each time. The TGI in assay [5], in assay [6], in assay [7], in [8], in assay [9] and in assay [10] was over 100 µM in each case. In addition, the TGI in [11], in assay [12], in assay [13], in assay [14], in assay [16] and in [17] was over 100 µM throughout.

As to `CC(C)N(C(=O)C1(O)c2ccccc2C=Cc2ccccc21)C(C)C`, the TGI in assay [1] was determined as 38.8 µM; in [2] it was 48.3 µM; in [18], 29.5 µM; in assay [3], 33.4 µM; in assay [4], 33.1 µM; in [5], 33.5 µM. Besides, the TGI in [7] was 29.3 µM; in assay [8], over 100 µM; in [9], 34.2 µM; in assay [10] it was 27.9 µM; in assay [11], 28.9 µM; in [12], 53.9 µM. Moreover, the TGI in [13] stood at 31.4 µM; in assay [14], 44.4 µM; in assay [15], 63 µM; in [16], 30.5 µM.
